{
  "source": "the supplement of paper PMC10307832",
  "assay_in_all_cases": "relative viability (nuclei count vs DMSO), 5 days (fraction); higher = more cells survive",
  "key": {"[1]": {"tested_on": "NCI-H1915", "summary_of_the_method": "(§1)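 Lung cancer cell lines, seeded in 1536-well plates, were treated the following day by pin tool with a single drug or with five library-drug doses (not always all listed) in √10 steps on top of a fixed anchor-drug dose. Cells were fixed and nuclei stained in one step after 5 days, and nuclei were counted. Relative viability is the nuclei count for treated wells divided by that for vehicle wells, reported as medians of duplicate plates.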"}, "[2]": {"tested_on": "NCI-H1944", "summary_of_the_method": "as §1"}, "[3]": {"tested_on": "NCI-H2023", "summary_of_the_method": "as §1"}, "[4]": {"tested_on": "NCI-H2087", "summary_of_the_method": "as §1"}, "[5]": {"tested_on": "NCI-H441", "summary_of_the_method": "as §1"}, "[6]": {"tested_on": "NCI-H460", "summary_of_the_method": "as §1"}, "[7]": {"tested_on": "NCI-H520", "summary_of_the_method": "as §1"}, "[8]": {"tested_on": "NCI-H596", "summary_of_the_method": "as §1"}, "[9]": {"tested_on": "NCI-H650", "summary_of_the_method": "as §1"}, "[10]": {"tested_on": "NCI-H661", "summary_of_the_method": "as §1"}, "[11]": {"tested_on": "NCI-H727", "summary_of_the_method": "as §1"}, "[12]": {"tested_on": "PC-3 [JPC-3]", "summary_of_the_method": "as §1"}},
  "data": [
    {"smiles": "COc1cc(N2CCC(C(N)=O)CC2)ccc1Nc1nc(N)c(Cl)c(Nc2ccccc2S(=O)(=O)C(C)C)n1", "note": "[HG-5-88-01] + Nc1ncn([C@H]2C[C@H](O)[C@@H](CO)O2)c(=O)n1 [Decitabine] (partner 2 µM)", "values": [
      {"measurement": "relative viability", "setting": "[1]; first compound 1.265 µM", "value": 0.248},
      {"measurement": "relative viability", "setting": "[1]; first compound 4 µM", "value": 0.254},
      {"measurement": "relative viability", "setting": "[2]; first compound 0.04 µM", "value": 0.398},
      {"measurement": "relative viability", "setting": "[2]; first compound 0.1265 µM", "value": 0.417},
      {"measurement": "relative viability", "setting": "[2]; first compound 0.4 µM", "value": 0.554},
      {"measurement": "relative viability", "setting": "[2]; first compound 1.265 µM", "value": 0.457},
      {"measurement": "relative viability", "setting": "[2]; first compound 4 µM", "value": 0.514},
      {"measurement": "relative viability", "setting": "[3]; first compound 0.04 µM", "value": 0.223},
      {"measurement": "relative viability", "setting": "[3]; first compound 0.1265 µM", "value": 0.244},
      {"measurement": "relative viability", "setting": "[3]; first compound 0.4 µM", "value": 0.229},
      {"measurement": "relative viability", "setting": "[3]; first compound 1.265 µM", "value": 0.236},
      {"measurement": "relative viability", "setting": "[3]; first compound 4 µM", "value": 0.256},
      {"measurement": "relative viability", "setting": "[4]; first compound 0.04 µM", "value": 0.315},
      {"measurement": "relative viability", "setting": "[4]; first compound 0.1265 µM", "value": 0.365},
      {"measurement": "relative viability", "setting": "[4]; first compound 0.4 µM", "value": 0.325},
      {"measurement": "relative viability", "setting": "[4]; first compound 1.265 µM", "value": 0.246},
      {"measurement": "relative viability", "setting": "[4]; first compound 4 µM", "value": 0.242},
      {"measurement": "relative viability", "setting": "[5]; first compound 0.04 µM", "value": 0.235},
      {"measurement": "relative viability", "setting": "[5]; first compound 0.1265 µM", "value": 0.28},
      {"measurement": "relative viability", "setting": "[5]; first compound 0.4 µM", "value": 0.272},
      {"measurement": "relative viability", "setting": "[5]; first compound 1.265 µM", "value": 0.231},
      {"measurement": "relative viability", "setting": "[5]; first compound 4 µM", "value": 0.271},
      {"measurement": "relative viability", "setting": "[6]; first compound 0.04 µM", "value": 0.478},
      {"measurement": "relative viability", "setting": "[6]; first compound 0.1265 µM", "value": 0.493},
      {"measurement": "relative viability", "setting": "[6]; first compound 0.4 µM", "value": 0.494},
      {"measurement": "relative viability", "setting": "[6]; first compound 1.265 µM", "value": 0.578},
      {"measurement": "relative viability", "setting": "[6]; first compound 4 µM", "value": 0.419},
      {"measurement": "relative viability", "setting": "[7]; first compound 0.04 µM", "value": 0.483},
      {"measurement": "relative viability", "setting": "[7]; first compound 0.1265 µM", "value": 0.478},
      {"measurement": "relative viability", "setting": "[7]; first compound 0.4 µM", "value": 0.584},
      {"measurement": "relative viability", "setting": "[7]; first compound 1.265 µM", "value": 0.516},
      {"measurement": "relative viability", "setting": "[7]; first compound 4 µM", "value": 0.538},
      {"measurement": "relative viability", "setting": "[8]; first compound 0.04 µM", "value": 1.02},
      {"measurement": "relative viability", "setting": "[8]; first compound 0.1265 µM", "value": 0.973},
      {"measurement": "relative viability", "setting": "[8]; first compound 0.4 µM", "value": 1.04},
      {"measurement": "relative viability", "setting": "[8]; first compound 1.265 µM", "value": 0.981},
      {"measurement": "relative viability", "setting": "[8]; first compound 4 µM", "value": 0.974},
      {"measurement": "relative viability", "setting": "[9]; first compound 0.04 µM", "value": 0.357},
      {"measurement": "relative viability", "setting": "[9]; first compound 0.1265 µM", "value": 0.328},
      {"measurement": "relative viability", "setting": "[9]; first compound 0.4 µM", "value": 0.435},
      {"measurement": "relative viability", "setting": "[9]; first compound 1.265 µM", "value": 0.366},
      {"measurement": "relative viability", "setting": "[9]; first compound 4 µM", "value": 0.306},
      {"measurement": "relative viability", "setting": "[10]; first compound 0.04 µM", "value": 0.54},
      {"measurement": "relative viability", "setting": "[10]; first compound 0.1265 µM", "value": 0.595},
      {"measurement": "relative viability", "setting": "[10]; first compound 0.4 µM", "value": 0.653},
      {"measurement": "relative viability", "setting": "[10]; first compound 1.265 µM", "value": 0.515},
      {"measurement": "relative viability", "setting": "[10]; first compound 4 µM", "value": 0.56},
      {"measurement": "relative viability", "setting": "[11]; first compound 0.04 µM", "value": 0.913},
      {"measurement": "relative viability", "setting": "[11]; first compound 0.1265 µM", "value": 0.789},
      {"measurement": "relative viability", "setting": "[11]; first compound 0.4 µM", "value": 0.837},
      {"measurement": "relative viability", "setting": "[11]; first compound 4 µM", "value": 0.672},
      {"measurement": "relative viability", "setting": "[12]; first compound 0.04 µM", "value": 0.762},
      {"measurement": "relative viability", "setting": "[12]; first compound 0.1265 µM", "value": 0.826},
      {"measurement": "relative viability", "setting": "[12]; first compound 0.4 µM", "value": 0.872},
      {"measurement": "relative viability", "setting": "[12]; first compound 1.265 µM", "value": 0.546},
      {"measurement": "relative viability", "setting": "[12]; first compound 4 µM", "value": 0.423}
    ]}
  ]
}
